Experiments:
Assay in all cases: MIC / synergy test of MIT and IPBC mixtures in Sabouraud maltose broth
Format in all cases: cell-based
Penicillium funiculosum = settings: for MIC at IPBC concentration Qb: IPBC part of the MIC pair; for MIC value: biocide used alone; for Synergy index Qa/QA + Qb/QB: method of Kull et al.; for MIC at MIT concentration Qa: MIT part of the MIC pair
Procedure: (§1) The calculation of the synergy index is performed according to the method by F. C. Kull et al., Applied Microbiology, vol. 9 (1961), p. 538. The synergy index is calculated here using the following formula: Synergy index SI=Qa/QA+Qb/QB.
(§2) When this formula is used for the biocide system tested here, the variables in the formula have the following meaning: • […]=Concentration of MIT in biocide mixture of MIT and IPBC • QA=Concentration of MIT as the only biocide • Qb=Concentration of IPBC in biocide mixture of MIT and IPBC • QB=Concentration of IPBC as the only biocide
(§3) When the synergy index has a value of less than 1, that means that a synergy of the two biocides exists.
The test arrangement again included a Sabouraud maltose broth as culture medium. The cell density was 10^6 germs/ml. The incubation time was 72 hours at 25° C. Every sample was incubated at 120 r.p.m. on an incubation shaker.
Example 5 was repeated with the change that the incubation time was 96 hours instead of 72 hours.

Saccharomyces cerevisiae = settings: for MIC at IPBC concentration Qb: IPBC part of the MIC pair; for MIC value: biocide used alone; for Synergy index Qa/QA + Qb/QB: method of Kull et al.; for MIC at MIT concentration Qa: MIT part of the MIC pair
Procedure: For that purpose, aqueous mixtures with different concentrations of 2-methylisothiazolin-3-one (MIT) and 3-iodo-2-propynyl-N-butylcarbamate (IPBC) were produced and the effects of those mixtures on Saccharomyces cerevisiae were tested.
In addition to the biocide components and water, the aqueous mixtures also contained a nutrient medium, specifically a Sabouraud maltose broth (trade product “Merck No. 10393”). The cell density of Saccharomyces cerevisiae was 10^6 cells/ml. The incubation time was 72 hours at 25° C. Each sample was incubated at 120 r.p.m. on an incubation shaker.
as §1, §2, §3
Example 1 was repeated with the change that the incubation time was 96 hours instead of 72 hours.

Aspergillus niger = settings: 96 hours; for MIC value: biocide used alone; for Synergy index Qa/QA + Qb/QB: method of Kull et al.
Procedure: as §1, §2, §3
(§4) The test arrangements again included a Sabouraud maltose broth as culture medium. The cell density was 10^6 cells/ml. The incubation time was 96 hours at 25° C. Every sample was incubated at 120 r.p.m. on an incubation shaker.

Candida valida = settings: 96 hours; for MIC value: biocide used alone; for Synergy index Qa/QA + Qb/QB: method of Kull et al.
Procedure: as §1, §2, §3, §4

Compound | MIC value (Penicillium funiculosum; 72 hours) [ppm] | Synergy index Qa/QA + Qb/QB (Penicillium funiculosum; 72 hours) | MIC value (Penicillium funiculosum; 96 hours) [ppm] | Synergy index Qa/QA + Qb/QB (Penicillium funiculosum; 96 hours) | MIC value (Saccharomyces cerevisiae; 72 hours) [ppm] | Synergy index Qa/QA + Qb/QB (Saccharomyces cerevisiae; 72 hours) | MIC value (Saccharomyces cerevisiae; 96 hours) [ppm] | Synergy index Qa/QA + Qb/QB (Saccharomyces cerevisiae; 96 hours) | MIC value (Aspergillus niger) [ppm] | Synergy index Qa/QA + Qb/QB (Aspergillus niger) | MIC value (Candida valida) [ppm] | Synergy index Qa/QA + Qb/QB (Candida valida) | also measured
CCCCNC(=O)OCC#CI [IPBC, 3-iodo-2-propynyl-N-butylcarbamate] | 1.5 | 1.00 | 1.5 | 1.00 | 10 | 1.00 | 10 | 1.00 | 5 | 1.00 | 2.5 | 1.00 | MIC at IPBC concentration Qb (Penicillium funiculosum; 72 hours): 1.5 ppm; MIC at IPBC concentration Qb (Penicillium funiculosum; 96 hours): 1.5 ppm; MIC at IPBC concentration Qb (Saccharomyces cerevisiae; 72 hours): 10 ppm; MIC at IPBC concentration Qb (Saccharomyces cerevisiae; 96 hours): 10 ppm; MIC at IPBC concentration Qb (Aspergillus niger; IPBC part of the MIC pair): 5 ppm; MIC at IPBC concentration Qb (Candida valida; IPBC part of the MIC pair): 2.5 ppm
Cn1sccc1=O [MIT, 2-methylisothiazolin-3-one] | 200 | 1.00 | 200 | 1.00 | 150 | 1.00 | 150 | 1.00 | 750 | 1.00 | 75 | 1.00 | MIC at MIT concentration Qa (Penicillium funiculosum; 72 hours): 200 ppm; MIC at MIT concentration Qa (Penicillium funiculosum; 96 hours): 200 ppm; MIC at MIT concentration Qa (Saccharomyces cerevisiae; 72 hours): 150 ppm; MIC at MIT concentration Qa (Saccharomyces cerevisiae; 96 hours): 150 ppm; MIC at MIT concentration Qa (Aspergillus niger; MIT part of the MIC pair): 750 ppm; MIC at MIT concentration Qa (Candida valida; MIT part of the MIC pair): 75 ppm

— US20050124674A1, “Synergistic biocide composition” (priority 1998, published 2005)
